This note sets out measurements from US12083124B2 (Incyte Corporation, priority 2019, dated 2024).

Where two headings read alike, the source gives them in different places.

For test [1], the target named is wild-type un-phosphorylated FGFR3 (Homo sapiens, UniProt P22607). Put plainly: FGFR Enzymatic Assay (FRET peptide phosphorylation), FGFR3.
For test [2], the target named is wild-type un-phosphorylated FGFR2 (Homo sapiens, UniProt P21802). Put plainly: FGFR Enzymatic Assay (FRET peptide phosphorylation), FGFR2.
The target of test [3] is wild-type un-phosphorylated FGFR1 (Homo sapiens, UniProt P11362). Put plainly: FGFR Enzymatic Assay (FRET peptide phosphorylation), FGFR1. The note with it: pre-incubated for 4 hours.
Test [4] has as its target wild-type un-phosphorylated FGFR4 (Homo sapiens, UniProt P22455). Briefly: FGFR Enzymatic Assay (FRET peptide phosphorylation), FGFR4.
Setting [5] is: read-out: FGFR2, wild-type un-phosphorylated FGFR2, pre-incubated for 4 hours.
Setting [6] is: FGFR1, wild-type un-phosphorylated FGFR1.
[7] abbreviates: read-out: FGFR1, wild-type un-phosphorylated FGFR1.
[8] abbreviates: read-out: FGFR4, wild-type un-phosphorylated FGFR4, pre-incubated for 4 hours.

wild-type un-phosphorylated FGFR1, sequence (P11362 22-822): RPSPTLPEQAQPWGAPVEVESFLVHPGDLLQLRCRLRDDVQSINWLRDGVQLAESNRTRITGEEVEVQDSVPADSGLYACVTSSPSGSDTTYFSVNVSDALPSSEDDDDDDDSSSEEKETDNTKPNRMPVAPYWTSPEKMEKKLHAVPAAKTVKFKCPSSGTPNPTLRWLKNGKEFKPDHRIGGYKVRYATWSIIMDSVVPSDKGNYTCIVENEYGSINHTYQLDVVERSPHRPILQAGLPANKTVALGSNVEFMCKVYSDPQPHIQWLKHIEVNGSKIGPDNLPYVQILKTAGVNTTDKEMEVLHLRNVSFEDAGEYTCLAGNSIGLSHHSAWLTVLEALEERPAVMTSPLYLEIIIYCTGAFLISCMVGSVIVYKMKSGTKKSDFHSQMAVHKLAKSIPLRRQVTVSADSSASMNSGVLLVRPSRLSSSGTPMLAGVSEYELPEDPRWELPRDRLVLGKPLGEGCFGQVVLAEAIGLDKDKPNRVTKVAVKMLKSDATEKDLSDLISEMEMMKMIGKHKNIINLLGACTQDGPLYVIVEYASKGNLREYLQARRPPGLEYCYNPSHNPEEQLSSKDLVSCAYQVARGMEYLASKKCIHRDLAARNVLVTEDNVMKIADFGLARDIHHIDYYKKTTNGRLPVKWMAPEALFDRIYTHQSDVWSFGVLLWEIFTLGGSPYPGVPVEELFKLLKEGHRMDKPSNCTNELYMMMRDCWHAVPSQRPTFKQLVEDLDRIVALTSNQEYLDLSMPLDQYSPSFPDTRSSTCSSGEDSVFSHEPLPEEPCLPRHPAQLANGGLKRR
wild-type un-phosphorylated FGFR2, sequence (P21802 22-821): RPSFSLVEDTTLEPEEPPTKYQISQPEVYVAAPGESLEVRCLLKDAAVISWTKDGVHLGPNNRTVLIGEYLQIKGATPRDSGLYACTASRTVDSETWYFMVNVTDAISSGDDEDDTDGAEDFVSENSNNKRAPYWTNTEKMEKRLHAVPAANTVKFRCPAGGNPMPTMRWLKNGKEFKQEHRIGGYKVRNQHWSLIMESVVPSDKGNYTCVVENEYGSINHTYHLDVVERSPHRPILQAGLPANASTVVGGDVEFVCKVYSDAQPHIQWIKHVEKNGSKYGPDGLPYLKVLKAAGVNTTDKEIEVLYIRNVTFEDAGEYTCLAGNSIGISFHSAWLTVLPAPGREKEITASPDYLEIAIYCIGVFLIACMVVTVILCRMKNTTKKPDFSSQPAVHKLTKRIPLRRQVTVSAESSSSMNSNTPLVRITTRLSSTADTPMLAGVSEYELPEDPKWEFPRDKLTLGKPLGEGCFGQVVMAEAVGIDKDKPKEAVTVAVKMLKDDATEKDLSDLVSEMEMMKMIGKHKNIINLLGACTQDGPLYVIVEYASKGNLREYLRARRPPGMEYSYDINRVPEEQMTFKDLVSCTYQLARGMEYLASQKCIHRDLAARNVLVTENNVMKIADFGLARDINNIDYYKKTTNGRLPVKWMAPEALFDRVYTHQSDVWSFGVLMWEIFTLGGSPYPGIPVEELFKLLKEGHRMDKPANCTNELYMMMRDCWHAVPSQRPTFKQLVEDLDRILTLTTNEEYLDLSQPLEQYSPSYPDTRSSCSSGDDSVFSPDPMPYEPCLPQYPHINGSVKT
wild-type un-phosphorylated FGFR3, sequence (P22607 23-806): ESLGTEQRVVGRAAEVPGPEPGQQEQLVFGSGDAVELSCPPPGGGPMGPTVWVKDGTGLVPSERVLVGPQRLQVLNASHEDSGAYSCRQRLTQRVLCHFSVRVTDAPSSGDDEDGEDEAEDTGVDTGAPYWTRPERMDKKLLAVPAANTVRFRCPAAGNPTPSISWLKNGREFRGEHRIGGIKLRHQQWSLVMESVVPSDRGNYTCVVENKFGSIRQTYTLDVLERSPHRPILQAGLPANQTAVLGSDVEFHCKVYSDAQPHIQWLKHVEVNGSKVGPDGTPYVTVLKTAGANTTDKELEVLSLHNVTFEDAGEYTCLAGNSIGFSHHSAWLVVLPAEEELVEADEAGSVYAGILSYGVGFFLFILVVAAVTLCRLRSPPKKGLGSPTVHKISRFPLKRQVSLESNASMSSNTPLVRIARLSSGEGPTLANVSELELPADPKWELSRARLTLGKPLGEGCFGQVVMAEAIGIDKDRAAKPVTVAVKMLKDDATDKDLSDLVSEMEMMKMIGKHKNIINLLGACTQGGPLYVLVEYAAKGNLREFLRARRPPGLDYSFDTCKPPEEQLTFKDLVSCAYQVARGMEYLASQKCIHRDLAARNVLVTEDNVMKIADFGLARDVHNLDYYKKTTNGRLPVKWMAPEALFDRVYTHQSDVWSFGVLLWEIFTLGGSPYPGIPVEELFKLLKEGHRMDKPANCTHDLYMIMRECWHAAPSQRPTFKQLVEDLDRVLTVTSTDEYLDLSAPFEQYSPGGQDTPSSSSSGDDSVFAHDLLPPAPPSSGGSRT
wild-type un-phosphorylated FGFR4, sequence (P22455 22-802): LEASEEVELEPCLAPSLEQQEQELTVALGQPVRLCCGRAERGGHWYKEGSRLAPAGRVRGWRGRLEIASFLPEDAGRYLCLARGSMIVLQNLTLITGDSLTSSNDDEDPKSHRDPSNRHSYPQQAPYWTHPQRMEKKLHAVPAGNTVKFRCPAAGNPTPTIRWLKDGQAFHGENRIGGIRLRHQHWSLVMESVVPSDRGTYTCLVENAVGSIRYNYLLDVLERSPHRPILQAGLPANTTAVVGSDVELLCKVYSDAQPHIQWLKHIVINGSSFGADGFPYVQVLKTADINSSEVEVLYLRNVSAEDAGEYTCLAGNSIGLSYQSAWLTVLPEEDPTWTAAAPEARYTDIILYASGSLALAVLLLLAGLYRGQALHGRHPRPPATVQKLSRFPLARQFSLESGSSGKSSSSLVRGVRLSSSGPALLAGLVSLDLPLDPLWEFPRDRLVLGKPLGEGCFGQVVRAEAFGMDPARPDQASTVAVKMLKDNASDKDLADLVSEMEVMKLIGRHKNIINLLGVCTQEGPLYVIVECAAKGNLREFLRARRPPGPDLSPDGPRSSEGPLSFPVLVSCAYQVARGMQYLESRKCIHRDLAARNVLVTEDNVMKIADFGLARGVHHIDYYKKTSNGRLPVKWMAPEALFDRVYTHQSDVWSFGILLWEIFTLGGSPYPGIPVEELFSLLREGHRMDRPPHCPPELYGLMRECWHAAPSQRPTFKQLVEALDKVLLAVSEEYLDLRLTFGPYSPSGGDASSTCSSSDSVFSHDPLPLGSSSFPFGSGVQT

Take `COc1cc2[nH]nc(-c3ccc(N4CCOCC4)nc3)c2nc1-c1cccc(CC#N)c1C` [Example 56, 2-(3-(6-Methoxy-3-(6-morpholinopyridin-3-yl)-1H-pyrazolo[4,3-b]pyridin-5-yl)-2-methylphenyl)acetonitrile]: the IC50 was below 6 nM in test [1], 6 to 40 nM in test [2] (setting [5]), above 100 nM in test [3] (setting [6]) and above 100 nM in test [4].

Regarding `COc1cc2[nH]nc(-c3ccc(N4CCCC4)nc3)c2nc1-c1cccc2c1CCC2` [Example 57, 5-(2,3-Dihydro-1H-inden-4-yl)-6-methoxy-3-(6-(pyrrolidin-1-yl)pyridin-3-yl)-1H-pyrazolo[4,3-b]pyridine], the IC50 was below 6 nM in test [1], below 6 nM in test [2], above 100 nM in test [3] (setting [6]) and above 100 nM in test [4].

In the case of `COc1cc2[nH]nc(-c3ccc(N4CCOCC4)nc3)c2nc1-c1cccc2c1CCC2` [Example 58, 4-(5-(5-(2,3-Dihydro-1H-inden-4-yl)-6-methoxy-1H-pyrazolo[4,3-b]pyridin-3-yl)pyridin-2-yl)morpholine], the IC50 in test [1] is below 6 nM; in test [2], below 6 nM; in test [3] (setting [6]), 40 to 100 nM; in test [4], 40 to 100 nM.

Turning to `CCNC(=O)N1CCN(c2ccc(-c3n[nH]c4cc(OC)c(-c5cccc6c5CCC6)nc34)cn2)CC1` [Example 59, 4-(5-(5-(2,3-Dihydro-1H-inden-4-yl)-6-methoxy-1H-pyrazolo[4,3-b]pyridin-3-yl)pyridin-2-yl)-N-ethylpiperazine-1-carboxamide], the IC50 was below 6 nM in test [1], below 6 nM in test [2], 6 to 40 nM in test [3] (setting [7]) and 6 to 40 nM in test [4] (setting [8]).

Consider `COc1cc2[nH]nc(-c3ccc(N4CCN(C(N)=O)CC4)nc3)c2nc1-c1cccc2c1CCC2` [Example 60, 4-(5-(5-(2,3-Dihydro-1H-inden-4-yl)-6-methoxy-1H-pyrazolo[4,3-b]pyridin-3-yl)pyridin-2-yl)piperazine-1-carboxamide], for which the IC50 was below 6 nM in test [1], below 6 nM in test [2], 6 to 40 nM in test [3] (setting [7]) and 6 to 40 nM in test [4] (setting [8]).

Regarding `COc1cc2[nH]nc(-c3ccc(N4CCN(C(C)=O)CC4)cc3)c2nc1-c1cccc2c1CCC2` [Example 61, 1-(4-(4-(5-(2,3-Dihydro-1H-inden-4-yl)-6-methoxy-1H-pyrazolo[4,3-b]pyridin-3-yl)phenyl)piperazin-1-yl)ethan-1-one], the IC50 in test [1] is below 6 nM; in test [2], below 6 nM; in test [3] (setting [6]), 40 to 100 nM; in test [4], above 100 nM.

As for `COc1cc2[nH]nc(-c3ccc(N4CCN(C(C)C)CC4)cc3)c2nc1-c1cccc2c1CCC2` [Example 62, 5-(2,3-Dihydro-1H-inden-4-yl)-3-(4-(4-isopropylpiperazin-1-yl)phenyl)-6-methoxy-1H-pyrazolo[4,3-b]pyridine], the IC50 was below 6 nM in test [1], below 6 nM in test [2], 6 to 40 nM in test [3] (setting [7]) and above 100 nM in test [4].

For `CCN1CCN(c2ccc(-c3n[nH]c4cc(OC)c(-c5cccc6c5CCC6)nc34)cc2)CC1` [Example 63, 5-(2,3-Dihydro-1H-inden-4-yl)-3-(4-(4-ethylpiperazin-1-yl)phenyl)-6-methoxy-1H-pyrazolo[4,3-b]pyridine], the IC50 was below 6 nM in test [1], below 6 nM in test [2], 6 to 40 nM in test [3] (setting [7]) and 40 to 100 nM in test [4].

For the compound `COc1cc2[nH]nc(-c3cnn(Cc4ccccn4)c3)c2nc1-c1cccc(C)c1C` [Example 66, 5-(2,3-Dimethylphenyl)-6-methoxy-3-(1-(pyridin-2-ylmethyl)-1H-pyrazol-4-yl)-1H-pyrazolo[4,3-b]pyridine], the IC50 in test [1] was below 6 nM; in test [2], below 6 nM; in test [3] (setting [6]), above 100 nM; in test [4] it was above 100 nM.

In the case of `COc1cc2[nH]nc(-c3cnn(C4CN(C(=O)N(C)C)C4)c3)c2nc1-c1cccc(C)c1C` [Example 72, 3-(4-(5-(2,3-Dimethylphenyl)-6-methoxy-1H-pyrazolo[4,3-b]pyridin-3-yl)-1H-pyrazol-1-yl)-N,N-dimethylazetidine-1-carboxamide], the IC50 in test [1] is below 6 nM; in test [2], below 6 nM; in test [3] (setting [6]), 40 to 100 nM; in test [4] it was 40 to 100 nM.

`COc1cc2[nH]nc(-c3ccc(C4CCN(C(=O)[C@H](C)O)CC4)nc3)c2nc1-c1cccc(C)c1C` [Example 77, (S)-1-(4-(5-(5-(2,3-Dimethylphenyl)-6-methoxy-1H-pyrazolo[4,3-b]pyridin-3-yl)pyridin-2-yl)piperidin-1-yl)-2-hydroxypropan-1-one]: the IC50 was below 6 nM in test [1], below 6 nM in test [2], above 100 nM in test [3] (setting [6]) and above 100 nM in test [4].

Regarding `COc1cc2[nH]nc(-c3ccc(C4CCN(C(=O)CO)CC4)nc3)c2nc1-c1cccc(C)c1C` [Example 78, 1-(4-(5-(5-(2,3-Dimethylphenyl)-6-methoxy-1H-pyrazolo[4,3-b]pyridin-3-yl)pyridin-2-yl)piperidin-1-yl)-2-hydroxyethan-1-one], the IC50 was below 6 nM in test [1], below 6 nM in test [2], above 100 nM in test [3] (setting [6]) and above 100 nM in test [4].

Consider `COc1cc2[nH]nc(-c3cnn(C)c3)c2nc1-c1cccc2c1CC(F)C2` (stereo not shown) [Example 84, 5-(2-Fluoro-2,3-dihydro-1H-inden-4-yl)-6-methoxy-3-(1-methyl-1H-pyrazol-4-yl)-1H-pyrazolo[4,3-b]pyridine], for which the IC50 in test [1] is below 6 nM; in test [2], below 6 nM; in test [3] (setting [6]), 40 to 100 nM; in test [4], above 100 nM.

As to `COc1cc2[nH]nc(-c3ccc(N4CCN5C[C@@H](O)C[C@@H]5C4)nc3)c2nc1-c1cccc(C)c1C` [Example 85, (7S,8aR)-2-(5-(5-(2,3-Dimethylphenyl)-6-methoxy-1H-pyrazolo[4,3-b]pyridin-3-yl)pyridin-2-yl)octahydropyrrolo[1,2-a]pyrazin-7-ol], the IC50 is below 6 nM in test [1], below 6 nM in test [2], 40 to 100 nM in test [3] (setting [6]) and 40 to 100 nM in test [4].

In the case of `COc1cc2[nH]nc(-c3ccc(N4CCN5C[C@H](O)C[C@H]5C4)nc3)c2nc1-c1cccc(C)c1C` [Example 87, (7R,8aS)-2-(5-(5-(2,3-Dimethylphenyl)-6-methoxy-1H-pyrazolo[4,3-b]pyridin-3-yl)pyridin-2-yl)octahydropyrrolo[1,2-a]pyrazin-7-ol], the IC50 in test [1] is below 6 nM; in test [2], below 6 nM; in test [3] (setting [6]) it was 40 to 100 nM; in test [4], 40 to 100 nM.

`COCCOc1ccc(-c2n[nH]c3cc(OC)c(-c4cccc5c4CC(O)C5)nc23)cn1` (stereo not shown) [Example 95, 4-(6-Methoxy-3-(6-(2-methoxyethoxy)pyridin-3-yl)-1H-pyrazolo[4,3-b]pyridin-5-yl)-2,3-dihydro-1H-inden-2-ol]: the IC50 in test [1] was below 6 nM; in test [2] (setting [5]), 6 to 40 nM; in test [3] (setting [6]) it was 40 to 100 nM; in test [4], above 100 nM.

As for `COc1cc2[nH]nc(-c3ccc(OC4CCOCC4)nc3)c2nc1-c1cccc2c1CC(O)C2` (stereo not shown) [Example 96, 4-(6-Methoxy-3-(6-((tetrahydro-2H-pyran-4-yl)oxy)pyridin-3-yl)-1H-pyrazolo[4,3-b]pyridin-5-yl)-2,3-dihydro-1H-inden-2-ol], the IC50 in test [1] is below 6 nM; in test [2] (setting [5]), 6 to 40 nM; in test [3] (setting [6]), 40 to 100 nM; in test [4], above 100 nM.

Take `COc1cc2[nH]nc(-c3ccc(C4CC4)nc3)c2nc1-c1cccc2c1CC(O)C2` (stereo not shown) [Example 97, 4-(3-(6-Cyclopropylpyridin-3-yl)-6-methoxy-1H-pyrazolo[4,3-b]pyridin-5-yl)-2,3-dihydro-1H-inden-2-ol]: the IC50 was below 6 nM in test [1], 6 to 40 nM in test [2] (setting [5]), 40 to 100 nM in test [3] (setting [6]) and above 100 nM in test [4].

On to `COc1cc2[nH]nc(-c3ccc(N4CC(N(C)C(=O)CO)C4)nc3)c2nc1-c1cccc(C)c1C` [Example 98, N-(1-(5-(5-(2,3-Dimethylphenyl)-6-methoxy-1H-pyrazolo[4,3-b]pyridin-3-yl)pyridin-2-yl)azetidin-3-yl)-2-hydroxy-N-methylacetamide], for which the IC50 in test [1] is below 6 nM; in test [2], below 6 nM; in test [3] (setting [6]), 40 to 100 nM; in test [4] it was above 100 nM.

Consider `COc1cc2[nH]nc(-c3ccc(C4CCN(C(C)=O)CC4)nc3)c2nc1-c1cccc2c1CCC2` [Example 99, 1-(4-(5-(5-(2,3-Dihydro-1H-inden-4-yl)-6-methoxy-1H-pyrazolo[4,3-b]pyridin-3-yl)pyridin-2-yl)piperidin-1-yl)ethan-1-one], for which the IC50 in test [1] was below 6 nM; in test [2], below 6 nM; in test [3] (setting [7]) it was 6 to 40 nM; in test [4] (setting [8]), 6 to 40 nM.

With `COc1cc2[nH]nc(-c3ccc(C4CCN(C(=O)CO)CC4)nc3)c2nc1-c1cccc2c1CCC2` [Example 100, 1-(4-(5-(5-(2,3-Dihydro-1H-inden-4-yl)-6-methoxy-1H-pyrazolo[4,3-b]pyridin-3-yl)pyridin-2-yl)piperidin-1-yl)-2-hydroxyethan-1-one], the IC50 in test [1] was below 6 nM; in test [2], below 6 nM; in test [3] (setting [7]), 6 to 40 nM; in test [4] (setting [8]), 6 to 40 nM.

For the compound `COc1cc2[nH]nc(-c3ccc(C4CCN(C(=O)[C@@H]5CCCN5C)CC4)nc3)c2nc1-c1cccc2c1CCC2` [Example 108, 5-(2,3-Dihydro-1H-inden-4-yl)-6-methoxy-3-(6-(1-(methyl-L-prolyl)piperidin-4-yl)pyridin-3-yl)-1H-pyrazolo[4,3-b]pyridine], the IC50 in test [1] was below 6 nM; in test [2] it was below 6 nM; in test [3] (setting [7]), 6 to 40 nM; in test [4] (setting [8]), 6 to 40 nM.
